Measurements published in patent publication US7855200B2, “Method for treatment of gastric ulcers and ulcers induced by aspirin” (Council of Scientific and Industrial Research, priority 2006, dated 2010).
Values joined by “and” are separate entries in the source; they are usually repeats but may differ in a detail not shown here. Equal values may be shown once.

How the values were obtained:
Format in all cases: in vivo, albino rats
Pylorus ligated rats = experiment: Pylorus ligated ulcers; details: 4 hours after pylorus ligation
How it was run: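 Albino rats, fasted 48 h, dosed with test compound (25 mg/kg, or 50, 25, 15, 10 and 5 mg/kg) or ranitidine 50 mg/kg in 1% Tween 80 vehicle. Pylorus ligated under ether 1 h post-dose. Gastric contents collected 4 h later, centrifuged, and total acid titrated with 0.01N NaOH.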

[1] = test system: gastric ulcers induced by aspirin, ethanol, stress and pylorus ligation; experiment: Antigastric ulcer screening by four different models (statements in words); details: summary statement
Description: The compounds taken under study for antigastric ulcer screening by four different models were selected using experimental albino rats: • 1. Aspirin induced gastric ulceration • 2. Pylorus ligated gastric ulceration • 3. Ethanol induced gastric ulceration • 4. Stress induced gastric ulceration
The commercially available drug ranitidine (sigma), Omeprazole (sigma) and sucralfate (Merck) were used as reference standard in experimental models. The Tween-80 (SD fine chemicals) was used as vehicle for the administration of the drug, which is used as control.

[2] = test system: gastric ulceration in cold restraint rats; experiment: Cold restraint (stress) induced ulcers; parameters: Ulcer index Mean(SE): scale not given here; details: rats, 4° C. for 2 hours
How it was run: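 Albino rats, fasted 48 h with free water, dosed orally with compound at 25 mg/kg or at 50, 25, 15, 10 and 5 mg/kg in 1% Tween 80 vehicle. Water removed 1 h before restraint at 4° C for 2 h. Sacrificed 2 h after stress; stomachs opened along greater curvature and scored as mean ulcer index.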

COC(=O)C1OC(Oc2cc3oc(-c4ccccc4)cc(=O)c3cc2OC)C(O)C(O)C1O (stereo not shown) [OA-5, 3,4,5-trihydroxy-6-(6-methoxy-4-oxo-2-phenyl-4-H-chromen-7-yoloxy) tetrahydro-pyran-2-carboxylicacid methyl ester]
Acidity Total mEg (Pylorus ligated rats; 5 mg/kg): 45.50 (±1.25) mEg
Gastric content (Pylorus ligated rats; 5 mg/kg): 2.06 (±0.28)
Inhibition % (Pylorus ligated rats; 5 mg/kg): 46.80%
Ulcer index Mean(SE) (Pylorus ligated rats; 5 mg/kg): 26.66 (±5.48)
pH (Pylorus ligated rats; 5 mg/kg): 3.25 (±0.17)
Acidity Total mEg (Pylorus ligated rats; 10 mg/kg): 42.90 (±2.37) mEg
Gastric content (Pylorus ligated rats; 10 mg/kg): 3.50 (±0.62)
Inhibition % (Pylorus ligated rats; 10 mg/kg): 59.78%
Ulcer index Mean(SE) (Pylorus ligated rats; 10 mg/kg): 21.66 (±3.04)
pH (Pylorus ligated rats; 10 mg/kg): 3.58 (±0.24)
Acidity Total mEg (Pylorus ligated rats; 15 mg/kg): 30.25 (±0.73) mEg
Gastric content (Pylorus ligated rats; 15 mg/kg): 3.62 (±0.61)
Inhibition % (Pylorus ligated rats; 15 mg/kg): 70.07%
Ulcer index Mean(SE) (Pylorus ligated rats; 15 mg/kg): 15.00 (±3.33)
pH (Pylorus ligated rats; 15 mg/kg): 4.35 (±0.10)
Acidity Total mEg (Pylorus ligated rats; 25 mg/kg): 30.18 (±0.50) m Eg
Gastric content (Pylorus ligated rats; 25 mg/kg): 2.10 (±0.34)
Inhibition % (Pylorus ligated rats; 25 mg/kg): 75.07%
Ulcer index Mean(SE) (Pylorus ligated rats; 25 mg/kg): 12.49 (±3.74)
pH (Pylorus ligated rats; 25 mg/kg): 5.62 (±0.19)
Acidity Total mEg (Pylorus ligated rats; 50 mg/kg): 32.66 (±0.62) m Eg
Gastric content (Pylorus ligated rats; 50 mg/kg): 2.50 (±0.19)
Inhibition % (Pylorus ligated rats; 50 mg/kg): 79.85%
Ulcer index Mean(SE) (Pylorus ligated rats; 50 mg/kg): 10.10 (±2.04)
pH (Pylorus ligated rats; 50 mg/kg): 4.62 (±0.10)
antiulcer activity (in words) ([1]; listed as Oroxyloside methyl ester): excellent potent molecule
antiulcer activity (in words) ([1]; listed as oroxyloside methyl ester): potent activity
Inhibition % ([2]; 5 mg/kg per orally): 31.55%
Ulcer index Mean(SE) ([2]; 5 mg/kg per orally): 27.5
Inhibition % ([2]; 10 mg/kg per orally): 41.92%
Ulcer index Mean(SE) ([2]; 10 mg/kg per orally): 23.33
Inhibition % ([2]; 15 mg/kg per orally): 50.14%
Ulcer index Mean(SE) ([2]; 15 mg/kg per orally): 19.99
Inhibition % ([2]; 25 mg/kg per orally): 75.45%
Ulcer index Mean(SE) ([2]; 25 mg/kg per orally, 25 mg/kg): 9.997 and 9.99
Inhibition % ([2]; 50 mg/kg per orally): 78.22%
Ulcer index Mean(SE) ([2]; 50 mg/kg per orally): 8.75
